One compound from patent US20120270237A9, “METHODS FOR THE IDENTIFICATION OF KINASE INTERACTING MOLECULES AND FOR THE PURIFICATION OF KINASE PROTEINS” (Cellzone AG, priority 2009, published 2012) can be followed below.

What all share (test): Kinobeads competition binding, HeLa Placenta lysate mix
Common to all, as to design: capturing and identification of kinases from mixed HeLa placenta lysates; endogenous in cells; host or cells: mixed lysate of HeLa cells and placenta tissue
Common to all, as to conditions: 10 μM free compound

One assay has as its target T1, MAP2K5 (Homo sapiens, UniProt Q13163).
T1 sequence (Q13163 1-448): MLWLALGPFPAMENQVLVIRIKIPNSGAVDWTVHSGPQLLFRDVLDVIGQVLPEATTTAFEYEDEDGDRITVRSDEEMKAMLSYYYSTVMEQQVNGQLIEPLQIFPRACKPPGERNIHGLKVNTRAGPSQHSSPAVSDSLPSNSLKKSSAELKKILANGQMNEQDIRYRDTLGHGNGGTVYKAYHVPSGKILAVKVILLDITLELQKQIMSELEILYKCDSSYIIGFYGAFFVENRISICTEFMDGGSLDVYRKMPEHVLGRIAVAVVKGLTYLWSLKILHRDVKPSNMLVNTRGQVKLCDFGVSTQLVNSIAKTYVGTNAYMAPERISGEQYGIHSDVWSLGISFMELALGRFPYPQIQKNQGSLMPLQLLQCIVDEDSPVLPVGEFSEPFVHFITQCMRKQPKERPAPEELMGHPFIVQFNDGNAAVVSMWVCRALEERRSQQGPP
The protocol: (§1) To one aliquot of cell lysate 10 μM of the free compound (FIG. 3, CZC31326) was added and allowed to bind to proteins in the lysate. Then the affinity matrix with the immobilized compound was added to capture proteins that were not interacting with the previously added free compound. Beads were separated from the lysate and bead bound proteins were eluted in SDS sample buffer and subsequently separated by SDS-Polyacrylamide gel electrophoresis (FIG. 10). Suitable gel bands were cut out and subjected to in-gel proteolytic digestion with trypsin. The second lysate aliquot was processed identically, however no free compound was added (DMSO solvent control). Peptides originating from samples 1 and 2 were labeled with iTRAQ reagents (iTRAQ 114 and iTRAQ 117) and the combined samples were analyzed with a nano-flow liquid chromatography system coupled online to a tandem mass spectrometer (LC-MS/MS) experiment followed by iTRAQ reporter ion quantification in the MS/MS spectra as described in Example 2.

A further assay deals with AurB (Homo sapiens, UniProt Q96GD4). As for the experimental part:
as §1

The next assay addresses T2, GAK (Homo sapiens, UniProt O14976).
T2 sequence (O14976 1-1311): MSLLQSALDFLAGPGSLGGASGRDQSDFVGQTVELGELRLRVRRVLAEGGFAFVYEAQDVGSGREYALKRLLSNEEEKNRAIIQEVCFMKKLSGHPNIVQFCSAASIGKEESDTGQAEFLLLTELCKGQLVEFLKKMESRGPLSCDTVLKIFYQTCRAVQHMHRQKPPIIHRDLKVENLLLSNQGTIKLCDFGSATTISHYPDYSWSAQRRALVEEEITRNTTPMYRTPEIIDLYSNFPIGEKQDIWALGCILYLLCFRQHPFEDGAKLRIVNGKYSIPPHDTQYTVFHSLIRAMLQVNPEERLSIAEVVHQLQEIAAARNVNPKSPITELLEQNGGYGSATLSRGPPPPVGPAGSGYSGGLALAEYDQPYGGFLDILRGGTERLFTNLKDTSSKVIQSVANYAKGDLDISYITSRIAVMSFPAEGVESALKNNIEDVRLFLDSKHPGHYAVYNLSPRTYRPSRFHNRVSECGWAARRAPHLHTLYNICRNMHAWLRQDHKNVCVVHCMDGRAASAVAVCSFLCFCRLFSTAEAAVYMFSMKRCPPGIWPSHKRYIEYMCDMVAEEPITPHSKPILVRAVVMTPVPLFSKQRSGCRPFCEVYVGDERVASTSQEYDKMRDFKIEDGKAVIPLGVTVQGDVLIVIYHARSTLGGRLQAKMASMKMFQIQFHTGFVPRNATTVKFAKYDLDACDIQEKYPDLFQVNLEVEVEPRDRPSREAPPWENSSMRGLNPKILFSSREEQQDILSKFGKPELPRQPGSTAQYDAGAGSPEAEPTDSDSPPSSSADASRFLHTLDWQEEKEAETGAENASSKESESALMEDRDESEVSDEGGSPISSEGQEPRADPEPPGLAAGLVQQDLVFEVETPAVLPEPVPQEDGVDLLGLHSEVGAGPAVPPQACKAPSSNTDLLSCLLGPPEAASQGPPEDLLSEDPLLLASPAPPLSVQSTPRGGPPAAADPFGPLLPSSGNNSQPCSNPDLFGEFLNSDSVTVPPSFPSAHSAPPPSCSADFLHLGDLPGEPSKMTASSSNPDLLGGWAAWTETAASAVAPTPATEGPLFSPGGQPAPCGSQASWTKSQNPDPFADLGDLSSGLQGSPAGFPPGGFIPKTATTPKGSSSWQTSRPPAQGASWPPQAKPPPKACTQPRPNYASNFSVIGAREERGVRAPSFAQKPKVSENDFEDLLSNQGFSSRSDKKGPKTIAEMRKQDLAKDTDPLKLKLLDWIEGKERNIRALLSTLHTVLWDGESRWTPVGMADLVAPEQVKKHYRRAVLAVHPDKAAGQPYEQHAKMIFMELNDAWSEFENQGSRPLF
The protocol:
as §1

The target of a further assay is MLK3 (Homo sapiens, UniProt Q16584). As for the experimental part:
as §1

The next assay deals with CaMK2d (Homo sapiens, UniProt Q13557). The protocol: as §1
Chain of CaMK2d (Q13557 whole entry): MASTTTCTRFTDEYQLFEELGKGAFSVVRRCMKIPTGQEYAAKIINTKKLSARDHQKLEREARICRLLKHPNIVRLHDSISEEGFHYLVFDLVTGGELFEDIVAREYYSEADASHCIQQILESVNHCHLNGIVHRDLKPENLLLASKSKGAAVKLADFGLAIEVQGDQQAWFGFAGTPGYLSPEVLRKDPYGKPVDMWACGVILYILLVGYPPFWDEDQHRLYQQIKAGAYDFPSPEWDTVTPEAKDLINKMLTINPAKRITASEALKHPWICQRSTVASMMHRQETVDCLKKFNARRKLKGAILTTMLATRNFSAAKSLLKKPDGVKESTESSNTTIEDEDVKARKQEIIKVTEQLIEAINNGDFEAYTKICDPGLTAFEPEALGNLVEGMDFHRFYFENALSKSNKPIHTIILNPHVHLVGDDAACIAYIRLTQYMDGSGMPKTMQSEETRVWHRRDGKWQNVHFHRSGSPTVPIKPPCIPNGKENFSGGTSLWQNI
In another assay the target is MARK3 (Homo sapiens, UniProt P27448). As for the experimental part: as §1
Chain of MARK3 (P27448 whole entry): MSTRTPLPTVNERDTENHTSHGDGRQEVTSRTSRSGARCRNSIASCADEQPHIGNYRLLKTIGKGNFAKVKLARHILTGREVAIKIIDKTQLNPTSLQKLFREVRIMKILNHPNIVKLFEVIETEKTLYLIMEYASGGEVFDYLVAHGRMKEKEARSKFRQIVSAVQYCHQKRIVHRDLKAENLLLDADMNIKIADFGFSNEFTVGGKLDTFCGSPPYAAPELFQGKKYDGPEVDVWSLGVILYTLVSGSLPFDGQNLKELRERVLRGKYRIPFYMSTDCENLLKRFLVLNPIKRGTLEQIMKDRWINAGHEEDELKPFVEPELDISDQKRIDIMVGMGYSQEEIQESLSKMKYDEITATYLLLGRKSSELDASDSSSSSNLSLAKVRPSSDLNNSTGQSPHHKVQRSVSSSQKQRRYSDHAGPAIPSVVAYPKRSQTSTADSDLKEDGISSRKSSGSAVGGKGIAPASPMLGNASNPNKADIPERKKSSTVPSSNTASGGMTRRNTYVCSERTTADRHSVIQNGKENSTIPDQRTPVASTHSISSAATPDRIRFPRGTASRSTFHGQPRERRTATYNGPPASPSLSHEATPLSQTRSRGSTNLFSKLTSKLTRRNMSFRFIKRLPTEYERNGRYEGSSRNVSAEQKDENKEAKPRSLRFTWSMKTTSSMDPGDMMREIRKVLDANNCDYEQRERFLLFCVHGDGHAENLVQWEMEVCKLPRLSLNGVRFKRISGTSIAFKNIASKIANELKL

Chain of AurB (Q96GD4 whole entry): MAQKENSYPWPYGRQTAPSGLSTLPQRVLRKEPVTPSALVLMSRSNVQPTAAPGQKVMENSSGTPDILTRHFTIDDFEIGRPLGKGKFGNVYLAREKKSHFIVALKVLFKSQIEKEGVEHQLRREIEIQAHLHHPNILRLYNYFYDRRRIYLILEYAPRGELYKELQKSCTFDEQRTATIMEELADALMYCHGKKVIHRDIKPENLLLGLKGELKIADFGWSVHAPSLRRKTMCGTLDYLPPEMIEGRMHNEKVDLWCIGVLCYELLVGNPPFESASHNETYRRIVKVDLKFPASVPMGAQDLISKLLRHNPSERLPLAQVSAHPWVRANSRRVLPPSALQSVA
Chain of MLK3 (Q16584 whole entry): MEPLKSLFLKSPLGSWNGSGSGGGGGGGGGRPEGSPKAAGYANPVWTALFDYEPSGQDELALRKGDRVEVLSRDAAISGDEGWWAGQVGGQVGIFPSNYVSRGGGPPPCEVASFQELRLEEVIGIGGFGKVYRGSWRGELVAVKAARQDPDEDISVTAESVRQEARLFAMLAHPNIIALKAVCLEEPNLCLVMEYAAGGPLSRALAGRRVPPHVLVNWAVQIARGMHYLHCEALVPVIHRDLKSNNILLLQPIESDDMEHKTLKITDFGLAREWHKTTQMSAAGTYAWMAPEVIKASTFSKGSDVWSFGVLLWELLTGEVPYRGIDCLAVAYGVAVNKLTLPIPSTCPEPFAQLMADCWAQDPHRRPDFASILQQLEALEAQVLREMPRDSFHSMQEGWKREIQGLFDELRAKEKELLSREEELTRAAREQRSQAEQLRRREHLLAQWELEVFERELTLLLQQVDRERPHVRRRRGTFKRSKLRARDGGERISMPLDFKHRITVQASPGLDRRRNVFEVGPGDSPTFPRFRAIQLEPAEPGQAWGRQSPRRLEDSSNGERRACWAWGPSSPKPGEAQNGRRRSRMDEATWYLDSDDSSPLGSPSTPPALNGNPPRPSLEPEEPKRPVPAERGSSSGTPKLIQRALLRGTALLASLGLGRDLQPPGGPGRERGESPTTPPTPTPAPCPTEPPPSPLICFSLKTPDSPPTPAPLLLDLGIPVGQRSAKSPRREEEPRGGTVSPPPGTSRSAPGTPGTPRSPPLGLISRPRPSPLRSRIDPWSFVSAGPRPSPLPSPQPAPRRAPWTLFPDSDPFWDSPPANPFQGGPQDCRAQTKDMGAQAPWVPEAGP

`CS(=O)(=O)Nc1ccccc1Nc1nc(Nc2cccc(OCCN)c2)ncc1Cl` [CZC31326, N-(2-(2-(3-(2-aminoethoxy)phenylamino)-5-chloropyrimidin-4-ylamino)phenyl)methanesulfonamide]: the inhibition at 10 µM amounted to 90.4% on MAP2K5; 90.8% at AurB; 93.6% on GAK; 72.1% on CaMK2d; 93.1% at MARK3. Further, on MLK3, the Competition % is listed as 93.8%.

As a reminder, the inhibition is the relative decrease from the control value, in per cent. Higher therefore signals a response far below the control.
